Data: publication PMC8395335, “Serotonergic–Muscarinic Interaction within the Prefrontal Cortex as a Novel Target to Reverse Schizophrenia-Related Cognitive Symptoms” (International Journal of Molecular Sciences, 2021)

Legend:
[1] = system: MK-801-treated mice; assay: Novel object recognition (NOR) test, MK-801-induced deficits; format: in vivo
Experimental: (§1) Drugs were administered on two different schedules: (1) acute administration of compounds 45 min (WAY100635—5-HT1A antagonist) or 30 min (VU0357017, VU152100, VU0238429, and F15599) before MK-801 (also administered once 30 min before the test in Y-maze or T1 in NOR test); and (2) prolonged administration (once per day for 7 consecutive days) of the compounds and MK-801 with the last administration 24 h before the test (NOR test) or at the day of the test (Y-maze). […] Schedules of administration are presented graphically in Figure 2. The subeffective doses of the compounds for acute administration in the NOR test were chosen based on our previous research (see: [22, 23]) while dose-dependent studies of the activity of the compounds in reversing disruptions in the Y-maze or after prolonged administration along with MK-801 were performed within this study. Different vehicles were used throughout the study: (1) 0.9% NaCl and (2) 10% Tween 80. Vehicles were administered to all animals (e.g., control mice and MK-801-treated mice) on the same schedule as drugs were administered to the appropriate drug-treated groups of mice. Neither solvent exerted effects on animal behavior.
(§2) Male Albino Swiss mice (Charles River, Sulzfeld, Germany) weighing 20–25 g at the beginning of the experiments were used in the studies. The animals were housed in a room with a 12:12 h light-dark cycle at a temperature of 22 ± 1 °C with food and water available ad libitum. The experimental groups consisted of 8–10 animals. All drugs were administered intraperitoneally (i.p.) at a volume of 10 mL/kg. The behavioral experiments were performed by an observer who was blinded to the treatment. The procedures were conducted in accordance with the European Communities Council Directive of 22 September 2010 (2010/63/EU) and Polish legislation acts concerning animal experimentation and were approved by the II Local Ethics Committee by the Maj Institute of Pharmacology, Polish Academy of Sciences in Krakow (15/2020, 240/2020).
(§3) In acute experiments, the tested compounds (alone or in combination) were administered 30 min before MK-801 (0.3 mg/kg), which was administered 30 min before the test or training trial (T1) in the NOR test. In chronic experiments, the tested compounds (alone or in combination) and MK-801 were administered for seven days. Behavioral tests were performed on the eighth day.
The NOR test was performed as described previously. Briefly, the habituation, training and test trial were carried out in a dark room in a black, plastic rectangular arena illuminated with a 355 lux bulb. During the habituation trial, the animals were allowed to explore the arena in the absence of objects (10 min/day for 2 days). The next day, the training (T1) and test (T2) trials were performed. Throughout T1, mice were allowed to freely explore two identical objects (5 min), one of which was subsequently replaced by a novel object in T2 (1 h later, 5 min of exploration). Time spent exploring (i.e., sniffing or touching) the familiar (Tfamiliar) or novel object (Tnovel) was measured by a trained observer, and then the recognition index was calculated for each mouse [(Tnovel − Tfamiliar)/(Tfamiliar + Tnovel)] × 100.

[2] = system: MK-801-treated mice; assay: Y-maze test (spontaneous alternations), MK-801-induced deficits; format: in vivo
Experimental: as §1, §2, §3
The Y-maze was performed using the methods described by Miedel et al. and Kraeuter et al. with minor modifications. A black, wooden Y-shaped apparatus with equal length arms (labeled A, B, or C) spaced 120 apart was used in the behavioral experiment. Visual clues were placed inside the maze and mounted to the back wall of each arm. The experiment was performed in a well-lit room. The mice were placed in the same starting arm and were allowed to freely explore the maze for 8 min. After each trial, the maze was wiped clean. The sequence and the number of arm entries were recorded to calculate the percentage of spontaneous alternations using the following formula: [(Number of alternations)/(Total arm entries − 2)] × 100. An arm entry was scored if the animal entered the arm with all paws. Consecutive entries into three distinct arms were scored as an alternation (e.g., ACB, but not ACA) in which sequences could overlap (e.g., ACBACABAC represents […] alternations).

[3] = Pharmacokinetic analysis of drug-drug interactions (plasma, FC concentration, FC penetration); format: in vivo, mice; details: Albino Swiss, mouse, in vivo, 30 min
Experimental: The experiment was performed using the methods described by Bridges et al. and in our previous studies.
The pharmacokinetic analysis was performed in the blood and prefrontal cortex. […] Plasma and FC samples were stored at −80 °C until analysis.
The investigated compounds were administered alone at the top dose (F15599—0.1 mg/kg, VU0357017—5 mg/kg, VU0152100—1 mg/kg, and VU0238429—5 mg/kg) and in combinations of muscarinic ligands at subeffective doses with F15599 at subeffective dose (F15599 + VU0357017 0.05 and 0.15 mg/kg, F15599 + VU0152100 0.05 and 0.05 mg/kg, F15599 + VU0238429 0.05 and 1 mg/kg). The FC and blood were collected on the eighth day, 30 min after administration. All mice were parallelly treated with MK-801 (0.3 mg/kg) for seven consecutive days.
On the day of analysis, frozen whole mouse brain tissues were weighed and homogenized in 1:2 (w/v) volumes of ice-cold acetonitrile containing 0.1% FA and the internal standard mix. Samples were homogenized using a Metal Bead Lysing Matrix, vortexed for 1 min, shaken for 20 min at 4 °C on Thermomixer C, and centrifuged at 14,000× g rpm for 20 min at 4 °C. Finally, 50 µL of supernatant were diluted with 0.1% FA in water (1:1, v/v) and analyzed using HPLC/MS/MS.
The sample extraction of plasma (20 μL) was performed after spiking with the internal standard mix using the protein precipitation method and three volumes of ice-cold acetonitrile containing 0.1% formic acid. The extract was vortexed, incubated on ice for 20 min and centrifuged at 14,000× g rpm for 20 min at 4 °C. The supernatant was diluted with 0.1% FA in water (1:1, v/v) and analyzed by means of HPLC/MS/MS using a QTRAP 4500 (AB Sciex) mass spectrometer in positive ion mode in Multiple Reaction Monitoring (MRM screening) coupled with UHPLC (NEXERA XR, Shimadzu). Chromatographic separation was achieved on a Synergi 4 µm Fusion-RP 80 A 50 × 2 mm (Phenomenex) column at a flow rate of 0.2 mL/min. The gradient program was as follows: 20% B (0.3 min), 20–100% B (1.7 min), 100% B (3 min), 100–20% B (0.1 min), 20% B (2 min), solvent A (95:5:0.1% formic acid in water:methanol) and solvent B (methanol containing 0.1% formic acid). The column temperature was set to 40 °C. Analyst software was used to control the instrument and collect data. The ion transfer tube temperature was 300 °C. The spray voltage, collision energy, declastering potential, and gas parameters were optimized to achieve the maximal response using the test compounds. Selected reaction monitoring was carried out using the transition parameters. Calibration curves were constructed, and a linear response was obtained in the range of 0.25–500 ng/mL (VU357017, VU0152100, and F15599) and 1.25–2500 ng/mL (VU0238429) by spiking known amounts of each compound in blank brain homogenates and plasma. For VU0357017 and F15599 IS VU0152100 was used as internal standard. Sample concentration of internal standard was 100 ng/mL for IS VU0238429 and 50 ng/mL for IS VU0152100.
Brain penetration was calculated as FC/plasma ratio × 100%.

C[C@]12N[C@H](Cc3ccccc31)c1ccccc12 [MK-801]
Disruption in the recognition index (NOR) ([1]; acute MK-801 (0.3 mg/kg) 30 min before T1): induced typical disruption
Disruption in the recognition index (NOR) ([1]; seven days of MK-801 administration): induced a typical disruption
Disruption of spontaneous alternations in the Y-maze ([2]; acute MK-801 (0.3 mg/kg) 30 min before test): induced typical disruption
Disruptive effect on animals' behavior in Y-maze ([2]; prolonged MK-801, test performed 24 h after the last administration): lack of MK-801 disruptive effect

COc1ccc(CNC(=O)c2sc3nc(C)cc(C)c3c2N)cc1 [VU0152100]
Reversal of MK-801-induced deficits in the NOR test (recognition index) ([1]; 7 days with MK-801, 0.1 mg/kg i.p.): activity of VU0152100 was observed
Reversal of MK-801-induced deficits in the NOR test (recognition index) ([1]; 7 days with MK-801, 1 mg/kg): activity of VU0152100 was observed
Reversal of MK-801-induced deficits in the NOR test (recognition index) ([1]; 7 days with MK-801, dose of 0.05): ineffective
Reversal of MK-801-induced disruptions in NOR test by combined administration ([1]; 7 days, F15599 0.05 mg/kg with VU0152100 0.05 mg/kg (subeffective doses)): reversed
Effect of top dose on MK-801-induced deficits in the NOR test ([1]; acute, 1 mg/kg i.p., alone): pro-cognitive effect
Effect of combined administration on MK-801-induced memory deficits in the NOR test ([1]; acute, subeffective doses, F15599 with VU0152100): no effect
Reversal of MK-801-induced disruptions in Y-maze by combined administration ([2]; 7 days, F15599 0.025 mg/kg with VU0152100 0.05 mg/kg (subeffective doses)): did not reverse
Reversal of MK-801-induced reduction in spontaneous alternations in the Y-maze ([2]; acute, 0.1-5 mg/kg i.p.): No efficacy
Effect of combined administration on spontaneous alternations in the Y-maze test ([2]; acute, F15599 0.1 mg/kg with VU0152100 1 mg/kg, MK-801-treated): no effect
Increase of FC penetration after prolonged administration compared to acute [3]: ca. 50%
Increase of FC penetration when administered concomitantly with F15599 [3]: more than 50%

COc1ccccc1N1CCN(CCN(C(=O)C2CCCCC2)c2ccccn2)CC1 [WAY100635]
Effect of WAY100635 on the pro-cognitive effect of muscarinic ligand in the NOR test ([1]; acute, WAY100635 0.1 mg/kg 15 min before VU0152100 (1 mg/kg)): reversed the pro-cognitive effect
Effect of WAY100635 on the pro-cognitive effect of muscarinic ligand in the NOR test ([1]; acute, WAY100635 0.1 mg/kg 15 min before VU0238429 (5 mg/kg)): reversed the pro-cognitive effect
Effect of WAY100635 on the pro-cognitive effect of muscarinic ligand in the NOR test ([1]; acute, WAY100635 0.1 mg/kg 15 min before VU0357017 (5 mg/kg)): reversed the pro-cognitive effect
